Results from patent US20200297862A1, “METHODS OF USING BISPECIFIC ANTIGEN-BINDING CONSTRUCTS TARGETING HER2” (Zymeworks Inc., priority 2016, published 2020).
Like-named read-outs stand apart in the source and are kept apart here.

Columns and labels:
[1] = system: FaDu xenograft; format: in vivo; details: for median survival: study duration 59 days
Description: FaDu cells are derived from squamous cell cancer of the head and neck that is HER2 low, non-HER2 gene amplified, HER3+, EGFR+ and highly sensitive to Cisplatin at the MTD.
Tumor cell suspensions were implanted subcutaneously into athymic nude mice. […] Cisplatin was purchased and provided for the study by Charles River Laboratories (Morrisville, N.C.). Animals were treated according to Regimen 1 at Day 1, followed by Regimen 2 on subsequent days as noted in Table A4.

[2] = system: HBCx-5 xenograft; assay: Trastuzumab resistant breast cancer PDX, ADC (Example 20); format: in vivo, athymic nude mice; details: Day 43
Description: Dosing for each group was as follows:
A) IgG control was dosed intravenously with a loading dose of 15 mg/kg on study day 1 and maintenance doses of 10 mg/kg administered on study days 4, 8, 11, 15, 18, 22, and 25
Tumor volume was measured throughout the course of the study, and the mean tumor volume, T/C ratio, number of responders, complete response, and zero residual disease parameters were assessed at day 43.

[3] = biological target: recombinant human HER2 (Homo sapiens, UniProt P04626); assay: SPR binding of captured antibody to HER2 at varying antibody capture levels
Description: An SPR assay was used to evaluate the mechanism by which an exemplary anti-HER2 biparatopic antibody binds to HER2 ECD; specifically, to understand whether both paratopes of one biparatopic antibody molecule can bind to one HER2 ECD (Cis binding; 1:1 antibody to HER2 molecules) or if each paratope of one biparatopic antibody can bind two different HER2 ECDs (Trans binding; 1:2 antibody to HER2 molecules). […] The correlation between a reduced (slower) off-rate with increasing antibody capture levels (surface density) is an indication of Trans binding (i.e. one antibody molecule binding to two HER2 molecules.
Between 2000 and 4000 RU of anti-human Fc injected at concentration between 5 and 10 μg/ml was immobilized on a CMS chip using standard amine coupling. […] HER2 dilutions were analyzed in duplicate. Sensograms were fit globally to a 1: 1 Langmuir binding model. All experiments were conducted at 25° C.
The following experiment was conducted to compare HER2 binding kinetics (kd, off-rate) of exemplary anti-HER2 ECD2×ECD4 biparatopic antibodies when captured at varying surface densities by SPR.

[4] = system: JIMT-1 cells; assay: Cellular staining and location by confocal microscopy at 1, 3 and 16 h; format: cell-based, human; details: 200 nM antibody, 1 h, 3 h
Description: Cells were gently washed two times with warmed sterile PBS (500 ml/well). Cells were fixed with 250 ml of 10% formalin/PBS solution for 10 min at RT. The fixed cells were washed three times with PBS (500 μl/well), permeabilized with 250 μl/well of PBS containing 0.2% Triton X-100 for 5 min, and washed three times with 500 μl/well PBS. Cells were blocked with 500 μl/well of PBS+5% goat serum for 1 h at RT. […] Cells were washed three times with 500 μl/well of PBS and the coverslips containing fixed cells were then mounted on a slide using Prolong gold anti-fade with DAPI (Life Technologies; # P36931). 60× single images were acquired using Olympus FV1000 Confocal microscope.

[5] = Thermal stability by DSC; format: physicochemical
Description: DSC was performed in the MicroCal™ VP-Capillary DSC (GE Healthcare) using a purified protein sample (anti-HER2 biparatopic antibodies and anti-HER2 biparatopic-ADCs) adjusted to about 0.3 mg/ml in PBS. The sample was scanned from 20 to 100° C. at a 60° C./hr rate, with low feedback, 8 sec filter, 5 min preTstat, and 70 psi nitrogen pressure. The resulting thermogram was analyzed using Origin 7 software.
The DSC was measured before and after SEC purification.

[6] = Kaplan-Meier survival, log-rank test

Q: With `N.N.[Cl][Pt][Cl]` [cisplatin] as the compound, how does the “RECIST Scores CR(TV < 20 mm^3)” value ([1]; Day 25, animals/group) read?
A: 0/15

Q: And the “RECIST Scores PD(>20% baseline growth)” value ([1]; Day 25, animals/group)?
A: 15/15

Q: What about the “RECIST Scores PR(>30% baseline regression)” value ([1]; Day 25, animals/group) of the same compound?
A: 0/15

Q: What about the “RECIST Scores SD(neither PD or PR)” value ([1]; Day 25, animals/group) of the same compound?
A: 0/15

Q: What about the “Mean TV % Δ from base line” value ([1]; Day 25, regimens of Table A4) of the same compound?
A: (782%)

Q: What about the “Treatment/Control Ratio” value ([1]; Day 25, regimens of Table A4) of the same compound?
A: 0.54

Q: What about the “Mean TV” value ([1]; Day 25, regimens of Table A4 (antibodies 15 then 10 mg/kg iv; cisplatin 2 mg/kg ip)) of the same compound?
A: 1070 mm^3

Q: And the “Log Rank Summary (survival) vs 6336” value [1, 6]?
A: n/s

Q: What about the “Log Rank Summary (survival) vs 6908” value [1, 6] of the same compound?
A: ★★★ (★★★ = P < 0.001)

Q: What about the “Log Rank Summary (survival) vs 10000” value [1, 6] of the same compound?
A: ★ (★ = P < 0.05)

Q: And the “Median Time to Progression” value ([1]; regimens of Table A4)?
A: 8.4 days

Q: And the median survival [1]?
A: 40 days

Q: And the “median survival” value ([1]; euthanized when tumor volume exceeded 2000 mm^3)?
A: 40 days

Q: With T-DM1 as the compound, how does the “Complete response (>10% baseline regression)” value [2] read?
A: 1/7

Q: What about the “Mean TV % change from Baseline” value [2] of the same compound?
A: +65%

Q: What about the “Mean TV (mm3)” value [2] of the same compound?
A: 193 mm3

Q: What about the “Responders (TV < 50% of control)” value [2] of the same compound?
A: 6/7

Q: What about the “T/C (IgG) ratio” value [2] of the same compound?
A: 0.21

Q: And the “Zero residual disease (TV < 20 mm3)” value [2]?
A: 0/7

Q: Which “kd (1/s) over a range of antibody capture levels” value [3] does the source give for “v4182: monovalent anti-HER2 antibody, pertuzumab Fab on chain A; the OA of Table 11D” here?
A: no change in kd values

Q: Which “cellular staining and location” value [4] does the source give for “v4184: bivalent anti-HER2 antibody, pertuzumab Fabs, heterodimeric Fc, pertuzumab analog” here?
A: pronounced plasma membrane staining at the 1, 3 and 16 h time points

Q: With “v9996: monovalent anti-HER2 antibody, pertuzumab Fab with Y96A in VL and T30A/A49G/L69F in VH” as the compound, how does the “DSC post-SEC ΔTm wrt WT (C)” value ([5]; after SEC purification, WT = v10013) read?
A: −0.7 C

Q: And the “DSC pre-SEC ΔTm wrt WT (C)” value ([5]; before SEC purification, WT = v10013)?
A: −0.2 C

Q: What about the “DSC post-SEC Tm (C)” value ([5]; one-armed antibody, after SEC purification) of the same compound?
A: 77.2 C

Q: What about the “DSC pre-SEC Tm (C)” value ([5]; one-armed antibody, before SEC purification) of the same compound?
A: 77.2 C
